Test system: Micrococcus luteus NRRL B-8166 uricase
Test: Assay of uricase (spectrophotometric, disappearance of uric acid at 290 nm)
Type: biochemical
Protocol: Uricase was assayed spectrophotometrically by following the disappearance of uric acid at 290 nm using a modification of the procedure described by Mahler et. al, J. Biol. Chem., 216, p. 625, (1955). Assay tubes contained 2.7 ml 50 mM KPi buffer pH 8.6, 0.1 mM sodium EDTA, 0.05 ml 6 mM urate, plus enzyme and water to give a final volume of 3.0 ml. Changes or additions to the assay mixtures were made when necessary. Tubes were incubated for 5 minutes at 30° C; the reaction was started by adding enzyme. Molar extinction coefficient for uric acid at 290 nm is 12,300. Activity was expressed in units of uricase activity, where a unit is that amount of enzyme which catalyzes the oxidation of one μmole of uric acid per minute at 30° C and pH 8.6.

| SMILES | Km (substrate not given, the uricase assay uses urate, KPi buffer pH 8.6, 30° C, read-out: Michaelis constant) [µM] | Ki (read-out: inhibition constant for oxonate) [µM] |
| --- | --- | --- |
| O=c1[nH]c(=O)c2[nH]c(=O)[nH]c2[nH]1 [uric acid] | 37 | – |
| O=C(O)c1nc(=O)[nH]c(=O)[nH]1 [oxonate] | – | 4.5 |

Reference: US4064010A, “Purification of uricase” (Eastman Kodak Company, priority 1976, dated 1977)
